Earlier results as cited in patent US20040131694A1, “Pharmaceutical composition for the medical treatment of the benign prostatic hyperplasia, its preparation method and its therapeutic application” (H.P.B. S.A., priority 2002, published 2004).

Test system: Bladder outlet obstruction due to Benign Prostatic Hyperplasia
[1] = Up to 24 weaks of treatment, Tammela and Kontturi 1993

For CC(C)(C)NC(=O)[C@H]1CC[C@H]2[C@@H]3CC[C@H]4NC(=O)C=C[C@]4(C)[C@H]3CC[C@]12C [Finasteride], the Daytime frequency [1] is given as 1.4, the Dysuria [1] is given as 0.4 and the Hesitancy [1] is given as 0.5. For the same compound, the Intermittence [1] was 0.7, the Nocturia [1] was 1.5 and the “Prostatic specific antigen (ng. %)” value [1] was 2.9 ng. %. The “Prostatic volume (grs.)” value [1] was 35 gr, the “Q max.” value [1] was 10.3 mL/s and the “Residual urine volume (ml.)” value [1] was 76 cc. For the same compound, the “Sensation of incomplete Voiding” value [1] was 0.9, the Terminal dribbling [1] was 0.4 and the “Total points (I-PSS)” value [1] was 7.1 points. The Urgency [1] was 0.7, the Weak stream [1] was 0.6 and the Residual effect (treatment must be continuous) was “none”.
